From patent US11767295B2, “Isoindole derivative” (TIANJIN HEMAY PHARMACEUTICAL CO., LTD., priority 2018, dated 2023)

Legend:
Assay type in all cases: in vivo
[1] = system: DNCB-induced atopic dermatitis in Balb/c mice; test: Efficacy evaluation test of DNCB-induced atopic dermatitis in Balb/c mice model (Biological Example 1); settings: BID × 10
Description: 60 healthy male SPF Balb/c mice, each of which the body weight was 19-21 g, were randomly divided into 6 groups by body weight. There were 10 mice in each group.
(§1) Before the test, the hair around the right ear of the mouse was removed to reduce the interference in the drug adhesion to the hair.
The start of the test was recorded as Day 1. The specific time for measuring ear thickness was slightly adjusted based on FIG. 1. After the end of the 18th day of the test, blood was taken from each animal to detect the concentration of immunoglobulin (IgE) in the serum (in accordance with the kit instructions). Both ears of the animal were cut off. Ear pieces were cut by an 8 mm punch at the fixed position of the ears and weighed. Differences in the swelling degrees of two ears were calculated.
(§2) The changes in mouse ear thickness and the ear weights of the same area and the IgE concentrations in the serum among different groups on the 18th day were analyzed and compared statistically with One-Way Anova in SPSS 17, respectively. The G test method was used to delete outliers. p<0.05 indicated there were statistical differences. Ear swelling degree (mg)=right ear weight (mg)−left ear weight (mg); Ear thickness change (mm)=right ear thickness (mm)−left ear thickness (mm); Inhibitory rate of ear swelling degree (%)=1−(ear swelling degree of drug administration group−ear swelling degree of blank control group)/(ear swelling degree of model control group−ear swelling degree of blank control group)×100%; Inhibitory rate of ear thickness change (%)=1−(ear thickness change of drug administration group−ear thickness change of blank control group)/(ear thickness change of model control group−ear thickness change of blank control group)×100%; Inhibitory rate of IgE (%)=1−(IgE concentration in administration group−IgE concentration in blank control group)/(IgE concentration in model control group−IgE concentration in blank control group)×100%.

[2] = system: DNCB-induced atopic dermatitis in Balb/c mice; test: Efficacy evaluation test of DNCB-induced atopic dermatitis in Balb/c mice model (Biological Example 3); settings: BID × 11
Description: 30 healthy male SPF Balb/c mice, each of which the weight was 19-21 g, were randomly divided into 3 groups by body weight. There were 10 mice in each group.
as §1
The start of the test was recorded as Day 1. The specific time for measuring ear thickness and body weight was slightly adjusted based on FIG. 3. After the end of the Day 19 of the test, blood was taken from each animal to detect the concentration of immunoglobulin (IgE) in the serum (in accordance with the kit instructions). Both ears of the animal were cut off. Ear pieces were cut by an 8 mm punch at the fixed position of the ears and weighed. Differences in the swelling degree of two ears were calculated.
as §2, with “of” for “among”, “19th” for “18th”

[3] = system: Phorbol ester (TPA)-induced ear swelling in mice; test: Inhibition of phorbol ester (TPA)-induced ear swelling in mice (Biological Example 4); settings: ICR mice, 30 mg/mL in acetone, 40 μL in 2 administrations on right ear; 5 hours after TPA modeling
Description: 40 male ICR mice were selected and divided into 5 groups. There were 8 mice in each group.
Before the test, the animals were grouped and the hair around the right ear of the mice was removed.
20 μL of respective drug was applied to the animals in each test group (a blank solvent was applied to the model control group). Modeling and induction were carried out after 1 h 10 min. Except for the blank group, 20 μL of TPA at a concentration of 125 μg/mL were applied to the right ears of the animals for induction. After induction for 10 minutes, 20 μL of respective drug was applied to the right ears of the animals in each test group (a blank solvent was applied to the model control group).
After modeling for 5 hours, ear pieces of both sides on the same location of animals in each group were taken with a punch and weighed to calculate the ear swelling degree, ear swelling rate and inhibitory rate.
The ear swelling degree and ear swelling rate after modeling and administration for 5 hours were analyzed and tested with One-Way ANOVA multiple-group test index in SPSS17.0. P<0.05 indicated there were statistical differences. Ear swelling degree (mg)=right ear weight (mg)−left ear weight (mg); Ear swelling rate (%)=(right ear weight−left ear weight)/left ear weight×100%; Inhibitory rate of ear swelling degree (%)=1−(ear swelling degree of drug administration group−ear swelling degree of blank control group)/(ear swelling degree of model control group−ear swelling degree of blank control group)×100%.

[4] = Balb/c mice, 1 mg/mouse on ear, Day 10, Mean ± S.D.
[5] = Balb/c mice, 1 mg/mouse on ear, Day 17, Mean ± S.D.
[6] = Balb/c mice, 1 mg/mouse on ear, Day 18, Mean ± S.D.
[7] = 0.1 mg/mouse on ear, 19th day, vs model and blank control

## CCOc1cc([C@H](CC(=O)OC)N2C(=O)c3cccc(NC(C)=O)c3C2=O)ccc1OC [Example 10, methyl (S)-3-(4-acetamido-1,3-dioxoisoindolin-2-yl)-3-(3-ethoxy-4-methoxyphenyl)propionate]
[1]; 1 mg/mouse on ear, 18th day, vs model and blank control
  Inhibitory Rate of Ear Swelling Degree: 45.7%
[1]; Balb/c mice, 1 mg/mouse (50 mg/mL, 20 μL) on ear, Day 1, Mean ± S.D.
  Weight Changes of Animals, Day 1: 20.6 ± 0.8 g
[1]; Balb/c mice, 1 mg/mouse on ear, 18th day, vs model and blank control
  Inhibitory Rate of Ear Thickness: 58.8%
[1]; Balb/c mice, 1 mg/mouse on ear, Day 1, Mean ± S.D.
  Ear Thickness Change, Day 1: 0.21 ± 0.01 mm
[1]; [4]
  Ear Thickness Change, Day 10: 0.35 ± 0.07 mm
  Weight Changes of Animals, Day 10: 22.3 ± 1.1 g
[1]; [5]
  Ear Thickness Change, Day 17: 0.46 ± 0.10 mm
  Weight Changes of Animals, Day 17: 21.8 ± 1.3 g
[1]; [6]
  Ear Thickness Change, Day 18: 0.44 ± 0.07 mm
  Weight Changes of Animals, Day 18: 22.4 ± 1.3 g
[1]; Table 4, Balb/c mice, 1 mg/mouse on ear, 18th day
  Ear Thickness: 0.44 ± 0.07 mm
[1]; right minus left ear piece weight (8 mm punch), 1 mg/mouse on ear, 18th day
  Ear Swelling Degree: 13.7 ± 2.9 mg
[1]; serum, 1 mg/mouse on ear, 18th day
  IgE Concentration: 4366.7 ± 1933.9 ng/mL
[1]; serum, 1 mg/mouse on ear, 18th day, vs model and blank control
  Inhibitory Rate of IgE Concentration: 57.5%
[2]; [7]
  Inhibitory Rate of Ear Swelling: 38.5%
  Inhibitory Rate of Ear Thickness: 27.1%
[2]; Balb/c mice, 0.1 mg/mouse (5 mg/mL, 20 μL) on ear, Day 1, Mean
  Weight Changes of Animals, Day 1: 20.5 g
[2]; Balb/c mice, 0.1 mg/mouse on ear, Day 1, Mean ± S.D.
  Ear Thickness Change, Day 1: 0.26 ± 0.01 mm
[2]; Balb/c mice, 0.1 mg/mouse on ear, Day 8, Mean
  Weight Changes of Animals, Day 8: 21.8 g
[2]; Balb/c mice, 0.1 mg/mouse on ear, Day 10, Mean ± S.D.
  Ear Thickness Change, Day 10: 0.52 ± 0.11 mm
[2]; Balb/c mice, 0.1 mg/mouse on ear, Day 12, Mean
  Weight Changes of Animals, Day 12: 21.9 g
[2]; Balb/c mice, 0.1 mg/mouse on ear, Day 14, Mean
  Weight Changes of Animals, Day 14: 22.2 g
[2]; Balb/c mice, 0.1 mg/mouse on ear, Day 16, Mean
  Weight Changes of Animals, Day 16: 22.0 g
[2]; Balb/c mice, 0.1 mg/mouse on ear, Day 17, Mean ± S.D.
  Ear Thickness Change, Day 17: 0.65 ± 0.09 mm
[2]; Balb/c mice, 0.1 mg/mouse on ear, Day 19, Mean
  Weight Changes of Animals, Day 19: 22.3 g
[2]; Balb/c mice, 0.1 mg/mouse on ear, Day 19, Mean ± S.D.
  Ear Thickness Change, Day 19: 0.63 ± 0.05 mm
[2]; Table 11, 0.1 mg/mouse on ear, 19th day
  Ear Thickness: 0.63 mm
[2]; right minus left ear piece weight, 0.1 mg/mouse on ear, 19th day
  Ear Swelling Degree: 7.7 mg
[2]; serum, 0.1 mg/mouse on ear, 19th day
  IgE Concentration: 5543.4 ng/mL
[2]; serum, 0.1 mg/mouse on ear, 19th day, vs model and blank control
  Inhibitory Rate of IgE Concentration: 29.7%
[3]
  Inhibitory Rate of Ear Swelling Degree: 71.7%
